Experimental data reported in patent publication US11059843B2, “Stevioside M crystal form, preparation method therefor and use thereof” (ZHUCHENG HAOTIAN PHARM CO., LTD., priority 2017, dated 2021).

Key:
[1] = Dynamic moisture adsorption (DVS) hygroscopicity; type: physicochemical; conditions: for hygroscopic mass change (0%-40% RH) / hygroscopicity: water absorption at 40% RH / hygroscopic mass change (40%-80% RH) / hygroscopicity: water absorption at 80% RH: DVS, 25° C.
Experimental: DVS analysis: It was measured using DVS Intrinsic type dynamic moisture adsorption instrument from British SMS instrument company, measuring temperature: 25° C.; relative humidity: 0-95%.

[2] = Physical stability of crystal form on storage at 25° C. and RH 60% for half a year (XRPD); type: physicochemical
Experimental: (§1) X-ray powder diffraction analysis (XRPD), differential scanning calorimetry analysis (DSC), thermogravimetric analysis (TG), dynamic moisture adsorption analysis (DVS) and the like were made for the crystal form A of stevioside M prepared in the above examples. XRPD analysis: It was tested at room temperature using a Bruker D8 advance type diffractometer from Bruker Instruments, Germany, Cu-Kα ray (λ=1.5418 Å) was used, the 2θ angle was scanned from 3 to 40 degrees, and the scanning speed was 0.2 degrees/second.
The crystal form A of stevioside M prepared in the above examples was stored at 25° C. and RH 60% for half a year, and the analysis results are shown in FIG. 9.

[3] = Chemical stability by HPLC after storage at 40° C. and RH 75% for half a year; type: physicochemical
Experimental: HPLC analysis: It was determined using a 1260 infinity liquid chromatograph from Agilent Technologies, Inc., USA. Sample solution preparation method: 25-50 mg of stevioside M sample was accurately weighed, and added into a 25 ml volumetric flask, then water-acetonitrile (7:3, v/v) solution was added, dissolved to volume. Preparation method of sodium phosphate buffer (specification: 10 mmol/L, pH: 2.6): dissolving 2.76 g of sodium dihydrogen phosphate into 2 liters of water, adding phosphoric acid, and the pH was adjusted to 2.6. Chromatographic column: Luna 5μ C18(2) 100 A column from Phenomenex. Injection volume: 5 μl. Flow rate: 1.0 mL/min. Column temperature: 40° C. Detector: UV detection at 210 nm. The elution gradient is shown as follows: […]

[4] = Crystal form stability by XRPD after drying at 105° C. for one day; type: physicochemical
Experimental: as §1
The crystal form A of stevioside M prepared in the above examples was subjected to XRPD analysis after drying at 105° C. for one day, and the analysis results are shown in FIG. 7. It can be seen from FIG. 7 that the crystal form is unchanged, and the crystal form has good stability under high temperature conditions. The crystal form B of stevioside M is extremely unstable under high temperature conditions, and which is amorphous after drying for one day at 105° C., and the analysis results are shown in FIG. 8.

[5] = Water solubility / powder dissolution profile; type: physicochemical
Experimental: The crystal form A of stevioside M prepared in the above examples has good reproducibility and is stable in water solubility, and has a maximum solubility of about 3 mg/mL, and the equilibrium solubility is about 2 mg/mL at 24 hours. The powder dissolution profiles of the two batches of crystal form A of stevioside M prepared by the examples are shown in FIG. 11. The water solubility of crystal form A is similar to that of the stevioside D-stevioside M amorphous composition (about 3 mg/mL) disclosed in Patent CN 105722533 A, and both of which can stably increase the water solubility by 2-3 times.

[6] = water at room temperature, stevioside M content of 75% to 90%; cited from earlier work

| hygroscopic mass change (0%-40% RH) [1] [%] | hygroscopicity: water absorption at 40% RH [1] | hygroscopic mass change (40%-80% RH) ([1]; 40%-80% RH) [%] | hygroscopicity: water absorption at 80% RH [1] | hygroscopicity compared with the amorphous form and crystal form B ([1]; 25° C. and 40% RH) | hygroscopicity compared with amorphism under normal storage ([1]; 40%-80% RH) | mass percentage of moisture absorption within a relative humidity of 0-40% ([1]; dynamic moisture adsorption profile FIG. 4, RH 0-40%) | mass percentage of moisture absorption within a relative humidity of 40-80% ([1]; dynamic moisture adsorption profile FIG. 4, RH 40-80%) | crystal form after storage (XRPD) [2] | reduction of content (HPLC) after storage [3] | crystal form after drying (XRPD) [4] | equilibrium solubility in water ([5]; at 24 hours) | maximum solubility in water ([5]; powder dissolution) | SMILES | solubility in water [6] |
| --- | --- | --- | --- | --- | --- | --- | --- | --- | --- | --- | --- | --- | --- | --- |
| 11.0 | 40% RH, 11.0% of | 8.2 | 80% RH, 19.2% of |  |  |  |  |  |  |  |  |  | C=C1C[C@@]23CCC4[C@](C)(C(=O)OC5OC(CO)C(O)C(OC6OC(CO)C(O)C(O)C6O)C5OC5OC(CO)C(O)C(O)C5O)CCC[C@@]4(C)[C@@H]2CCC1(OC1OC(CO)C(O)C(OC2OC(CO)C(O)C(O)C2O)C1OC1OC(CO)C(O)C(O)C1O)C3 (stereo partly drawn) [amorphism of stevioside M, 13-[(2-O-β-D-pyranoglucosyl-3-O-β-D-pyranoglucosyl-β-D-pyranoglucosyl)oxyl]-ent-kauran-16-en-19-oic acid-[(2-O-β-D-pyranoglucosyl-3-O-β-D-pyranoglucosyl-β-D-pyranoglucosyl) ester], reference compound] |  |
| 9.4 | 40% RH, 9.4% of | 4.6 | 80% RH, 14.0% of | significantly less hygroscopic | less hygroscopic than amorphism | 0-9.4% | 9.4-14.0% | unchanged | less than 0.2% | unchanged | about 2 mg/mL | about 3 mg/mL | C=C1C[C@@]23CCC4[C@](C)(C(=O)OC5OC(CO)C(O)C(OC6OC(CO)C(O)C(O)C6O)C5OC5OC(CO)C(O)C(O)C5O)CCC[C@@]4(C)[C@@H]2CCC1(OC1OC(CO)C(O)C(OC2OC(CO)C(O)C(O)C2O)C1OC1OC(CO)C(O)C(O)C1O)C3 (stereo partly drawn) [crystal form A of stevioside M, 13-[(2-O-β-D-pyranoglucosyl-3-O-β-D-pyranoglucosyl-β-D-pyranoglucosyl)oxyl]-ent-kauran-16-en-19-oic acid-[(2-O-β-D-pyranoglucosyl-3-O-β-D-pyranoglucosyl-β-D-pyranoglucosyl) ester]] |  |
| 15.3 | 40% RH, 15.3% of | 2.1 | 80% RH, 17.4% of |  |  |  |  |  |  | amorphous |  |  | C=C1C[C@@]23CCC4[C@](C)(C(=O)OC5OC(CO)C(O)C(OC6OC(CO)C(O)C(O)C6O)C5OC5OC(CO)C(O)C(O)C5O)CCC[C@@]4(C)[C@@H]2CCC1(OC1OC(CO)C(O)C(OC2OC(CO)C(O)C(O)C2O)C1OC1OC(CO)C(O)C(O)C1O)C3 (stereo partly drawn) [crystal form B of stevioside M, 13-[(2-O-β-D-pyranoglucosyl-3-O-β-D-pyranoglucosyl-β-D-pyranoglucosyl)oxyl]-ent-kauran-16-en-19-oic acid-[(2-O-β-D-pyranoglucosyl-3-O-β-D-pyranoglucosyl-β-D-pyranoglucosyl) ester]] |  |
|  |  |  |  |  |  |  |  |  |  |  |  |  | C=C1C[C@@]23CCC4[C@](C)(C(=O)OC5OC(CO)C(O)C(OC6OC(CO)C(O)C(O)C6O)C5OC5OC(CO)C(O)C(O)C5O)CCC[C@@]4(C)[C@@H]2CCC1(OC1OC(CO)C(O)C(OC2OC(CO)C(O)C(O)C2O)C1OC1OC(CO)C(O)C(O)C1O)C3 (stereo partly drawn) [stevioside M, 13-[(2-O-β-D-pyranoglucosyl-3-O-β-D-pyranoglucosyl-β-D-pyranoglucosyl)oxyl]-ent-kauran-16-en-19-oic acid-[(2-O-β-D-pyranoglucosyl-3-O-β-D-pyranoglucosyl-β-D-pyranoglucosyl) ester]] | 0.1% to 0.15 |
